Source: patent US9072712B2, “Synergistic antimicrobial preparations containing chlorite and hydrogen peroxide” (priority 1999, dated 2015)
Entries after “also recorded” stand apart in the source; their conditions may differ.

Assays:
[1] = test system: S. haemolyticus keratitis in rabbits; test: In-vivo antimicrobial efficacy in infectious S. haemolyticus keratitis (corneal CFU)
Experimental: (§1) After 24 hours, all corneas were likewise infected, and the rabbits were divided randomly into three groups. The rabbits (five) of Group I then were treated with the chlorite-hydrogen peroxide formulation defined above as cleaning while wearing contact lenses (here termed “Bactericide”); the rabbits (five) of Group II were treated with commercially available 0.3% ofloxacin antibiotic ophthalmic solution; and the rabbits (two) of Group III were untreated to serve as a control. At 24 and 48 hours post infection, the rabbits underwent visual eye examination, photographic documentation and biomicroscopy. After 24 hours of treatment, three animals each from Groups I and II and one animal from Group III were sacrificed. The eyes were enucleated and an 8 mm disc of cornea was homogenized and plated onto growth media for microbial isolation and quantification. After 48 hours of treatment, the same procedure was followed for the remaining animals.

[2] = test system: S. haemolyticus keratitis in rabbits; test: In-vivo clinical efficacy in infectious S. haemolyticus keratitis
Experimental: as §1

human eye = conditions: hydrogen peroxide without sodium chlorite (0.01 wt. %); cited from earlier work
[3] = test system: antibiotic-resistant strain of pseudomonas aeruginosa; test: In-vitro antimicrobial effect (log reduction); format: cell-based
[4] = test system: antibiotic-resistant strain of staphylococcus haemolyticus; test: In-vitro antimicrobial effect (log reduction); format: cell-based
normal human eyes = conditions: in the presence of sodium chlorite (400 ppm)
From the text: Two drops of each formulation were then placed in the cul-de-sac of two normal human eyes. Upon instillation of the drops, the subjects were instructed to close their eyelids.

[5] = 24 hours after infection (before treatment)

CC1COc2c(N3CCN(C)CC3)c(F)cc3c(=O)c(C(=O)O)cn1c23 (stereo not drawn) [0.3% Ofloxacin, ofloxacin]
bacteria isolated from 8 mm disc of cornea, Average ([1]; 24 hours post treatment): 13,000 CFU | bacteria isolated from 8 mm disc of cornea, individual animals ([1]; 24 hours post treatment): iii) 11,000 CFU; also recorded: i) 23,000 CFU; also recorded: ii) 5,000 CFU | bacteria isolated from 8 mm disc of cornea, Average ([1]; 48 hours post treatment): 5,100 CFU | bacteria isolated from 8 mm disc of cornea, individual animals ([1]; 48 hours post treatment): i) 5,000 CFU; also recorded: ii) 5,200 CFU | corneal edema score [2, 5]: corneal edema (+2) | hyperemia score [2, 5]: hyperemia (+2) | inflammation score [2, 5]: inflammation(+2) | corneal edema score ([2]; 24 hours after treatment): corneal edema (+2) | hyperemia score ([2]; 24 hours after treatment): hyperemia (+2) | inflammation score ([2]; 24 hours after treatment): inflammation(+2) | corneal edema score ([2]; 48 hours after treatment): corneal edema (+1) | hyperemia score ([2]; 48 hours after treatment): hyperemia (+1) | inflammation score ([2]; 48 hours after treatment): inflammation(+1)

OO [H202 alone, hydrogen peroxide]
upper limit of human ocular tolerability (human eye): about 100 ppm | Log Reduction ([3]; 200 ppm, 1 hour): 0.01 | Log Reduction ([3]; 200 ppm, 2 hours): 0.54 | Log Reduction ([4]; 200 ppm, 1 hour): 0.20 | Log Reduction ([4]; 200 ppm, 2 hours): 0.23 | hydrogen peroxide levels very well tolerated by human eyes (normal human eyes): up to 500 ppm

sodium chlorite [NaClO2 alone]
Log Reduction ([3]; 400 ppm, 1 hour): 0.351 | Log Reduction ([3]; 400 ppm, 1 hour, listed as sodium chlorite): 0.35 | Log Reduction ([3]; 400 ppm, 2 hours): 1.35 | Log Reduction ([4]; 400 ppm, 1 hour): 0.11 | Log Reduction ([4]; 400 ppm, 2 hours): 1.01
